Where two headings read alike, the source gives them in different places.
Columns and labels:
[1] = Plasma protein binding (equilibrium dialysis), human; format: in vitro ADME; details: for recovery at 6 h, 1 μM / fraction unbound at 6 h, 1 μM: pH 7.4, human plasma, 6 hours dialysis; for fraction unbound at 6 h, 1 μM: read-out: Mean % Bound Human (converted)
Method: Example 204 Plasma Protein Binding Measurements
The plasma protein binding was measured as the following procedure.
1) Preparation of 100 mM sodium phosphate and 150 mM NaCl buffer (PBS)
A basic solution was prepared by dissolving 14.2 g/L Na2HPO4 and 8.77 g/L NaCl in deionized water and the solution could be stored at 4° C. for up to 7 days. An acidic solution was prepared by dissolving 12.0 g/L NaH2PO4 and 8.77 g/L NaCl in deionized water and the solution could be stored at 4° C. for up to 7 days. The basic solution was titrated with the acidic solution to pH 7.4 and store at 4° C. for up to 7 days. pH was checked on the day of experiment and was adjusted if outside specification of 7.4±0.1.
Frozen plasma was thawed immediately at room temperature.
The plasma was centrifuged at 3,220 g for 10 minutes to remove clots and supernatant was collected into a fresh tube. The pH of the plasma was checked and recorded.
Note: a). Only use plasma that has been thawed no more than twice since arrival. b). Only use plasma within the range of pH 7 to pH 8.
3) Preparation of working solutions
The working solutions of test compounds and control compound ketoconazole were prepared in DMSO at the concentration of 200 μM. And then 3 μL of working solution was removed to mix with 597 μL of human, rat or mouse plasma to achieve a final concentration of 1 μM (0.5% DMSO). Plasma samples were vortexed thoroughly.
4) Preparation of dialysis membranes
The dialysis membranes were soaked in ultrapure water for 60 minutes to separate strips, then in 20% ethanol for 20 minutes, finally in dialysis buffer for 20 minutes.
5) Procedure for equilibrium dialysis
The dialysis apparatus was assembled according to the manufacturer's instruction. Each cell was filled with 120 μL of plasma sample and dialyzed against equal volume of dialysis buffer (PBS). The assay was performed in duplicate. The dialysis plate was sealed and incubated in an incubator at 37° C. with 5% CO2 at 100 rpm for 6 hours. At the end of incubation, seal was removed and 50 μL of samples from both buffer and plasma chambers were transferred to wells of a 96-well plate.
6) Procedure for sample analysis
50 μL of blank plasma was added to each buffer samples and an equal volume of PBS was supplemented to the collected plasma sample. 300 μL of room temperature quench solution (acetonitrile containing internal standards (1S, 100 nM Alprazolam, 500 nM Labetalol and 2 μM Ketoprofen)) was added to precipitate protein. Samples in plate were vortexed for 5 minutes and centrifuged at 3,220 g for 30 minutes at 4° C. And then 100 μL of the supernatant was transferred to a new 96-well plate with 100 μL or 200 μL water (depends on the LC-MS signal response and peak shape) for LC-MS/MS analysis.
Calculate the percentages of test compound and control compound bound as follows:
% Free=(Peak Area Ratiobuffer chamber/Peak Area Ratioplasma chamber)*100
% Recovery=(Peak Area Ratiobuffer chamber+Peak Area Ratioplasma chamber)/Peak Area Ratio total sample*100
Peak Area Ratiobuffer chamber means the conc for free fraction
Peak Area Ratioplasma chamber means the conc for both free and bound fraction
Peak Area Ratiototal sample means the conc for starting sample before incubation

TrkA kinase = TrkA kinase (Homo sapiens, UniProt P04629); assay: TrkA kinase assay (mobility shift assay); format: biochemical; details: read-out: Trk A Kinase IC50
Procedure, shortened: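 Caliper mobility-shift readout of FAM-labelled peptide conversion by TrkA in 50 mM HEPES pH 7.5, 0.0015% Brij-35, with ATP; enzyme preincubated 10 min with compound (10-point dilution), reaction at 28 °C, EDTA stop. Inhibition relative to DMSO and no-enzyme controls; IC50 by four-parameter fit.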

Sequence of TrkA kinase (P04629 33-796): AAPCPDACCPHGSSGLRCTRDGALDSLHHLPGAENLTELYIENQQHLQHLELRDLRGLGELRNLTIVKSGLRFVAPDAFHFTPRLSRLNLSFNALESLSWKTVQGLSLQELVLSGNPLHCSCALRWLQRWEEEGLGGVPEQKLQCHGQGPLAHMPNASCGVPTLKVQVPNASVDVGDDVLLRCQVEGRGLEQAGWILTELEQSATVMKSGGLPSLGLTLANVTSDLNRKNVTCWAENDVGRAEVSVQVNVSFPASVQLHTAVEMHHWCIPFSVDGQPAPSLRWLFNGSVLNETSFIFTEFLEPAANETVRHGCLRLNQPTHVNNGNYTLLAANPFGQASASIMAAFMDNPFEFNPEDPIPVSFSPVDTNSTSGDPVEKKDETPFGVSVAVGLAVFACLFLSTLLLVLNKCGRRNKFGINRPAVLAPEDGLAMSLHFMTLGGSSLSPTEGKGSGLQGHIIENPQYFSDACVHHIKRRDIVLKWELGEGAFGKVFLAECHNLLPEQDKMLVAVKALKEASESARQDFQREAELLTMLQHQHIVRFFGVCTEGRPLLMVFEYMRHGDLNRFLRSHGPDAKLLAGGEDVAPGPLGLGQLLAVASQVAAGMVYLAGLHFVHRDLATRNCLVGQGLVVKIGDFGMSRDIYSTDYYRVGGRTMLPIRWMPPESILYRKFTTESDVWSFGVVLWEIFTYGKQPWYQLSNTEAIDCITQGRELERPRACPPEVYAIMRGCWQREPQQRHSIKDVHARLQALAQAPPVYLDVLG

Row | Compound | recovery at 6 h, 1 μM [1] [%] | fraction unbound at 6 h, 1 μM [1] | IC50 (TrkA kinase; numeric values) [nM] | IC50 (TrkA kinase; class symbols) [nM] | degree of plasma protein binding (in words) ([1]; as shown in Table 16)
1 | CC(C)(O)Cc1nnc(-c2cnn3ccc(N4CCC[C@@H]4c4cc(F)ccc4F)nc23)[nH]1 [Compound 30, (R)-1-(5-(5-(2-(2,5-difluorophenyl)pyrrolidin-1-yl)pyrazolo[1,5-a]pyrimidin-3-yl)-4H-1,2,4-triazol-3-yl)-2-methylpropan-2-ol] | 90.7 | 0.139 | 4.9 |  | 
2 | OC(c1nnc(-c2cnn3ccc(N4CCC[C@@H]4c4cc(F)ccc4F)nc23)[nH]1)C(F)(F)F (stereo partly drawn) [Compound 47, 1-(5-(5-((R)-2-(2,5-difluorophenyl)pyrrolidin-1-yl)pyrazolo[1,5-a]pyrimidin-3-yl)-4H-1,2,4-triazol-3-yl)-2,2,2-trifluoroethan-1-ol] |  |  | 3.23 |  | 
3 | C[C@H](N)c1nnc(-c2cnn3ccc(N4CCC[C@@H]4c4cc(F)ccc4F)nc23)[nH]1 [Compound 11, (S)-1-(5-(5-((R)-2-(2,5-difluorophenyl)pyrrolidin-1-yl)pyrazolo[1,5-a]pyrimidin-3-yl)-4H-1,2,4-triazol-3-yl)ethan-1-amine] | 89.3 | 0.284 |  | ≤ 10 | 
4 | Cc1nnc(-c2cnn3ccc(N4CCCC4c4cc(F)ccc4F)nc23)[nH]1 (centres unmarked) [Comparative compound A, 5-[2-(2,5-Difluorophenyl)pyrrolidin-1-yl]-3-(5-methyl-1H-1,2,4-triazol-3-yl)pyrazolo[1,5-a]pyrimidine, reference compound] | 93.8 | 0.0323 |  |  | high degree of plasma protein binding

Further compounds by falling IC50 (TrkA kinase; numeric values), results first:

Row | recovery at 6 h, 1 μM [1] [%] | fraction unbound at 6 h, 1 μM [1] | IC50 (TrkA kinase; numeric values) [nM] | IC50 (TrkA kinase; class symbols) [nM] | degree of plasma protein binding (in words) ([1]; as shown in Table 16) | Compound
5 | 96.8 | 0.121 | 2.3 |  |  | OC1CC(c2nnc(-c3cnn4ccc(N5CCC[C@@H]5c5cc(F)ccc5F)nc34)[nH]2)C1 (stereo partly drawn) [Compound 31, (R)-3-(5-(5-(2-(2,5-difluorophenyl)pyrrolidin-1-yl)pyrazolo[1,5-a]pyrimidin-3-yl)-4H-1,2,4-triazol-3-yl)cyclobutan-1-ol]
6 |  | 0.0604 | 2.3 |  |  | OC1(c2nnc(-c3cnn4ccc(N5CCC[C@@H]5c5cc(F)ccc5F)nc34)[nH]2)CCC1 [Compound 23, (R)-1-(5-(5-(2-(2,5-difluorophenyl)pyrrolidin-1-yl)pyrazolo[1,5-a]pyrimidin-3-yl)-4H-1,2,4-triazol-3-yl)cyclobutan-1-ol]
7 |  | 0.0691 | 1.37 |  |  | C[C@H](O)c1nnc(-c2cnn3ccc(N4CCC[C@@H]4c4cc(F)ccc4F)nc23)[nH]1 [Compound 4, (S)-1-(5-(5-((R)-2-(2,5-difluorophenyl)pyrrolidin-1-yl)pyrazolo[1,5-a]pyrimidin-3-yl)-4H-1,2,4-triazol-3-yl)ethan-1-ol]
8 | 97.4 | 0.111 | 1.26 |  |  | C[C@@H](CO)c1nnc(-c2cnn3ccc(N4CCC[C@@H]4c4cc(F)ccc4F)nc23)[nH]1 [Compound 39, (R)-2-(5-(5-((R)-2-(2,5-difluorophenyl)pyrrolidin-1-yl)pyrazolo[1,5-a]pyrimidin-3-yl)-4H-1,2,4-triazol-3-yl)propan-1-ol]
9 | 96.3 | 0.0988 | 0.68 |  |  | CC(C)(O)c1nnc(-c2cnn3ccc(N4CCC[C@@H]4c4cc(F)ccc4F)nc23)[nH]1 [Compound 7, (R)-2-(5-(5-(2-(2,5-difluorophenyl)pyrrolidin-1-yl)pyrazolo[1,5-a]pyrimidin-3-yl)-4H-1,2,4-triazol-3-yl)propan-2-ol]
